The assay addresses T1, Nav1.8 ion channel stably expressed on HEK293 cells (Homo sapiens, UniProt Q9Y5Y9).
T1 construct: expressed in transfected cells; host or cells: HEK293
The assay can be described thus: Inhibitory activity on Nav1.8, manual patch clamp. The format is cell-based. The settings on record: resting, clamped at -80 mV, 1 μM TTX, read-out: IC50 on inhibiting the Nav1.8 channel activity. An excerpt:
The purpose of the experiment is to investigate the effect of the compounds on Nav1.8 ion channel in an in vitro experiment, wherein the Nav1.8 ion channel is stably expressed on HEK293 cells. After the Nav1.8 current becomes stable, the Nav1.8 currents before and after the administration of the compound are compared so as to obtain the effect of the compound on the Nav1.8 ion channel.
Except for NaOH and KOH used for acid titration and base titration, all the compounds used for formulating the extracellular fluid and intracellular fluid were purchased from Sigma (St. Louis, Mo.). Extracellular fluid (mM): NaCl, 137; KCl, 4; CaCl2), 1.8; MgCl2, 1; HEPES, 10; glucose, 10; pH 7.4 (NaOH titration). Intracellular fluid (mM): aspartic acid, 140; MgCl2, 2; EGTA, 11; HEPES, 10; pH 7.2 (CsOH titration). All solutions of test compound and control compound contained 1 μM TTX.
The test compound was dissolved in dimethyl sulfoxide (DMSO) at a stock concentration of 9 mM. The stock solution of the test compound was dissolved in the extracellular fluid on the day of the test and formulated into the required concentration.
1) The compound was formulated into solutions with specified concentrations, the solutions were added to the pipelines respectively in order from low to high concentration, and the pipelines were marked.
2) The cell was transferred to the perfusion tank. A positive pressure was applied to the electrode. The tip of the electrode touched the cell. The three-way valve of the air extracting device was adjusted to a three-way state. A negative pressure was applied to the electrode, so that a high-resistance seal was formed between the electrode and the cell.
The negative pressure was applied continuously, thereby causing the cell membrane to rupture and forming a current path.
3) After the current for rupturing the cell membrane became stable, perfusion of different concentrations was carried out in sequence. Once the current was stable for at least one minute, perfusion of the next concentration was carried out.
4) The perfusion tank was cleaned. The perfusion tank was rinsed with the drug solutions in order from high to low concentration, and the rinse duration for each concentration of drug solution was 20 seconds. The perfusion tank was finally rinsed with the extracellular fluid for 1 minute.
The cell was clamped at −80 mV. The cell was depolarized to 10 mV with a square wave lasting 10 milliseconds to obtain the Nav1.8 current. This procedure was repeated every 5 seconds. The maximum current caused by the square wave was measured. After the current became stable, the test compound was perfused. After the response became stable, the blocking intensity was calculated.
The data was stored in the computer system for analysis. Data collection and analysis were carried out by pCLAMP 10 (Molecular Devices, Union City, Calif.), and the analysis results were reviewed by the administrator. Stable current means that the current changes within a limited range over time. The magnitude of stable current was used to calculate the effect of the compound at the concentration.
On the technique in general: In patch-clamp work, channel activity is measured electrically.
T1 sequence (Q9Y5Y9 whole entry): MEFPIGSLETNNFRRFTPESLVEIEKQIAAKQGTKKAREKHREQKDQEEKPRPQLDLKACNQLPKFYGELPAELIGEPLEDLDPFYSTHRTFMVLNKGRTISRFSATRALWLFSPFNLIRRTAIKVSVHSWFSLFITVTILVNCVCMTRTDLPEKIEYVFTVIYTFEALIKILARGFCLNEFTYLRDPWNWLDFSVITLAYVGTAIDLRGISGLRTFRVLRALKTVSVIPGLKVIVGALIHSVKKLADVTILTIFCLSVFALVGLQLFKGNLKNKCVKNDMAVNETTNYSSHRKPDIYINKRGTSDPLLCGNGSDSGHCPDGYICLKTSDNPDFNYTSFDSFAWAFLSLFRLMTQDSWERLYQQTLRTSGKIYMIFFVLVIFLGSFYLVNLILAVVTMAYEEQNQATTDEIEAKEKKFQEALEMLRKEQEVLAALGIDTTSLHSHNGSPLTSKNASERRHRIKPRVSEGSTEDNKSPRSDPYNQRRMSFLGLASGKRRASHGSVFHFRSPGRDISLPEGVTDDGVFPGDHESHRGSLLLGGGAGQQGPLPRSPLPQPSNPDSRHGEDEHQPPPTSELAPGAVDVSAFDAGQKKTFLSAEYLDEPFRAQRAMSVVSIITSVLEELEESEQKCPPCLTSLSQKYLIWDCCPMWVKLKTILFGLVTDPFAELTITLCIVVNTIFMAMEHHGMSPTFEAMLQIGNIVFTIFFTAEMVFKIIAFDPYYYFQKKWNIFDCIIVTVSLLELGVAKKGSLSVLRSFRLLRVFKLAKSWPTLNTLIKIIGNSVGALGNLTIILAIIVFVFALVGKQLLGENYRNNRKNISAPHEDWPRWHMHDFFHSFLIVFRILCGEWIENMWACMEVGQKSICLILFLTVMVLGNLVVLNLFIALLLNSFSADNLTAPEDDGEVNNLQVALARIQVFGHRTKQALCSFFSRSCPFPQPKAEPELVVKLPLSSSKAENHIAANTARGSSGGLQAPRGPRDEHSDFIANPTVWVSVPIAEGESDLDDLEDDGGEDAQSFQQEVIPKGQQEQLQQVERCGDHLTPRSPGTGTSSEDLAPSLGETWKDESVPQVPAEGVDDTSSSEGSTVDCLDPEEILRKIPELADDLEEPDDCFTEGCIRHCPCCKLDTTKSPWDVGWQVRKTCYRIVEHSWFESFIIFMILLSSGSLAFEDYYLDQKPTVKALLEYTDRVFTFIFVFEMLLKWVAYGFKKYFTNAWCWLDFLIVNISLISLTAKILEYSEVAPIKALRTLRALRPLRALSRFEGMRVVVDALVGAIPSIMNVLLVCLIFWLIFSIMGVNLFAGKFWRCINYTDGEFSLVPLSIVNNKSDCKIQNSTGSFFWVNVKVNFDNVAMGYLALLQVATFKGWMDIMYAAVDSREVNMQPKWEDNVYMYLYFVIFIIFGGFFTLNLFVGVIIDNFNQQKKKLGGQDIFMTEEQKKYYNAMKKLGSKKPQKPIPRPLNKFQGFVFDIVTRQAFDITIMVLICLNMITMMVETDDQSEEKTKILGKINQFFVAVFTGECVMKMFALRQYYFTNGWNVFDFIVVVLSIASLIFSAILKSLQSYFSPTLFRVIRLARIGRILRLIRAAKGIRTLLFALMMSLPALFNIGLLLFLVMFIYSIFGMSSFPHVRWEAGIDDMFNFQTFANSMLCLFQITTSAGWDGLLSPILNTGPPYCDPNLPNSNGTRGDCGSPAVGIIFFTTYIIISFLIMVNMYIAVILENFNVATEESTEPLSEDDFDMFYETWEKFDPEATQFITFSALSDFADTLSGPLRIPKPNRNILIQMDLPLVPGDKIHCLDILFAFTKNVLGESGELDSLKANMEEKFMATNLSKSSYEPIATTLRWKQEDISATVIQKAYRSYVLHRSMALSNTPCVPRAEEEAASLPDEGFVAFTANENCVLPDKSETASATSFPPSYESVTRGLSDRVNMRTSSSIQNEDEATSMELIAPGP
For the molecule `COc1cc(F)ccc1Oc1cc(Cl)c(Cl)cc1C(=O)Nc1cn[nH]c(=O)c1` [Example 1, 4,5-Dichloro-2-(4-fluoro-2-methoxyphenoxy)-N-(6-oxo-1,6-dihydropyridazin-4-yl)benzamide], the IC50 amounted to 1.6 nM. Take `Cc1cc(F)ccc1Oc1cc(Cl)c(Cl)cc1C(=O)Nc1cn[nH]c(=O)c1` [Example 3, 4,5-Dichloro-2-(4-fluoro-2-methylphenoxy)-N-(6-oxo-1,6-dihydropyridazin-4-yl)benzamide]: the IC50 amounted to 3.3 nM. As for `O=C(Nc1cn[nH]c(=O)c1)c1cc(Cl)c(Cl)cc1Oc1ccc(F)cc1` [Example 4, 4,5-Dichloro-2-(4-fluorophenoxy)-N-(6-oxo-1,6-dihydropyridazin-4-yl)benzamide], the IC50 was found to be 14.1 nM. Then `Cc1cc(F)ccc1Oc1cc(C(F)(F)C(F)(F)F)ccc1C(=O)Nc1cn[nH]c(=O)c1` [Example 5, 2-(4-Fluoro-2-methylphenoxy)-N-(6-oxo-1,6-dihydropyridazin-4-yl)-4-(perfluoroethyl)benzamide], with 23.7 nM. For the molecule `Cc1cc(OC(F)(F)F)ccc1Oc1cc(C(F)(F)F)ccc1C(=O)Nc1cn[nH]c(=O)c1` [Example 6, 2-(2-Methyl-4-(trifluoromethoxy)phenoxy)-N-(6-oxo-1,6-dihydropyridazin-4-yl)-4-(trifluoromethyl)benzamide], the IC50 amounted to 24.4 nM.

On to `Cc1cc(F)ccc1Oc1ccc(C(F)(F)F)cc1C(=O)Nc1cn[nH]c(=O)c1` [Example 7, 2-(4-Fluoro-2-methylphenoxy)-N-(6-oxo-1,6-dihydropyridazin-4-yl)-5-(trifluoromethyl)benzamide], for which the IC50 was 30.8 nM. Regarding `COc1cc(F)ccc1Oc1cc(C(F)(F)F)ccc1C(=O)Nc1cn[nH]c(=O)c1` [Example 8, 2-(4-Fluoro-2-methoxyphenoxy)-N-(6-oxo-1,6-dihydropyridazin-4-yl)-4-(trifluoromethyl)benzamide], the IC50 is 45.8 nM. Then `Cc1cc(F)ccc1Oc1cc(C(F)(F)F)ccc1C(=O)Nc1cn[nH]c(=O)c1` [Example 9, 2-(4-Fluoro-2-methylphenoxy)-N-(6-oxo-1,6-dihydropyridazin-4-yl)-4-(trifluoromethyl)benzamide], with 83.4 nM; and `Cc1cc(F)ccc1Cc1cc(C(F)(F)F)c(Cl)cc1C(=O)Nc1cn[nH]c(=O)c1` [Example 13, 5-Chloro-2-(4-fluoro-2-methylbenzyl)-N-(6-oxo-1,6-dihydropyridazin-4-yl)-4-(trifluoromethyl)benzamide], with 2.3 nM. Take `O=C(Nc1cn[nH]c(=O)c1)c1cc(Cl)c(C(F)(F)F)cc1Oc1ccc(OC(F)(F)F)cc1F` [Example 14, 5-Chloro-2-(2-fluoro-4-(trifluoromethoxy)phenoxy)-N-(6-oxo-1,6-dihydropyridazin-4-yl)-4-(trifluoromethyl)benzamide]: the IC50 amounted to 2.5 nM. As to `COc1cc(F)ccc1Oc1ccc(C(F)(F)F)cc1C(=O)Nc1cn[nH]c(=O)c1` [Example 16, 2-(4-Fluoro-2-methoxyphenoxy)-N-(6-oxo-1,6-dihydropyridazin-4-yl)-5-(trifluoromethyl)benzamide], the IC50 was determined as 17.9 nM. As to `COc1cc(F)ccc1Sc1cc(C(F)(F)F)c(Cl)cc1C(=O)Nc1cn[nH]c(=O)c1` [Example 17, 5-Chloro-2-((4-fluoro-2-methoxyphenyl)thio)-N-(6-oxo-1,6-dihydropyridazin-4-yl)-4-(trifluoromethyl)benzamide], the IC50 amounted to 18 nM.

With `COc1cc(F)ccc1Oc1cc(Cl)c(F)cc1C(=O)Nc1cn[nH]c(=O)c1` [Example 18, 4-Chloro-5-fluoro-2-(4-fluoro-2-methoxyphenoxy)-N-(6-oxo-1,6-dihydropyridazin-4-yl)benzamide], the IC50 was 22.2 nM. For the molecule `Cc1cc(F)ccc1Oc1cc(Cl)c(F)cc1C(=O)Nc1cn[nH]c(=O)c1` [Example 19, 4-Chloro-5-fluoro-2-(4-fluoro-2-methylphenoxy)-N-(6-oxo-1,6-dihydropyridazin-4-yl)benzamide], the IC50 turned out to be 31.7 nM. As for `Cc1cc(F)ccc1Oc1cc(Cl)ccc1C(=O)Nc1cn[nH]c(=O)c1` [Example 20, 4-Chloro-2-(4-fluoro-2-methylphenoxy)-N-(6-oxo-1,6-dihydropyridazin-4-yl)benzamide], the IC50 worked out at 58.5 nM. Then `COc1cc(F)ccc1Oc1cc(Cl)ccc1C(=O)Nc1cn[nH]c(=O)c1` [Example 21, 4-Chloro-2-(4-fluoro-2-methoxyphenoxy)-N-(6-oxo-1,6-dihydropyridazin-4-yl)benzamide], with 59.4 nM; and `COc1cc(F)ccc1Oc1ccc(OC(F)(F)F)cc1C(=O)Nc1cn[nH]c(=O)c1` [Example 22, 2-(4-Fluoro-2-methoxyphenoxy)-N-(6-oxo-1,6-dihydropyridazin-4-yl)-5-(trifluoromethoxy)benzamide], with 87.8 nM; and `Cc1cc(F)ccc1Oc1ccc(Cl)cc1C(=O)Nc1cn[nH]c(=O)c1` [Example 23, 5-Chloro-2-(4-fluoro-2-methylphenoxy)-N-(6-oxo-1,6-dihydropyridazin-4-yl)benzamide], with 92.3 nM. Regarding `Cc1cc(F)ccc1Oc1cc(Cl)c(C(F)(F)F)cc1C(=O)Nc1cn[nH]c(=O)c1` [Example 27, 4-Chloro-2-(4-fluoro-2-methylphenoxy)-N-(6-oxo-1,6-dihydropyridazin-4-yl)-5-(trifluoromethyl)benzamide], the IC50 came out at 5.7 nM. Then `Cc1cc(Oc2ccc(F)cc2C)c(C(=O)Nc2cn[nH]c(=O)c2)cc1Cl` [Example 28, 5-Chloro-2-(4-fluoro-2-methylphenoxy)-4-methyl-N-(6-oxo-1,6-dihydropyridazin-4-yl)benzamide], with 5.2 nM; and `Cc1cc(F)ccc1Oc1cc(C(F)(F)F)cc(C(F)(F)F)c1C(=O)Nc1cn[nH]c(=O)c1` [Example 29, 2-(4-Fluoro-2-methylphenoxy)-N-(6-oxo-1,6-dihydropyridazin-4-yl)-4,6-bis(trifluoromethyl)benzamide], with 90.4 nM.

Turning to `Cc1ccccc1Oc1cc(C(F)(F)F)c(Cl)cc1C(=O)Nc1cn[nH]c(=O)c1` [Example 30, 5-Chloro-N-(6-oxo-1,6-dihydropyridazin-4-yl)-2-(o-tolyloxy)-4-(trifluoromethyl)benzamide], the IC50 was determined as 16.2 nM.

Regarding `CCOc1cc(F)ccc1Oc1cc(C(F)(F)F)c(Cl)cc1C(=O)Nc1cn[nH]c(=O)c1` [Example 32, 5-Chloro-2-(2-ethoxy-4-fluorophenoxy)-N-(6-oxo-1,6-dihydropyridazin-4-yl)-4-(trifluoromethyl)benzamide], the IC50 amounted to 0.37 nM. For `Cc1cc(F)ccc1Oc1cc(C(F)(F)F)c(C)cc1C(=O)Nc1cn[nH]c(=O)c1` [Example 34, 2-(4-Fluoro-2-methylphenoxy)-5-methyl-N-(6-oxo-1,6-dihydropyridazin-4-yl)-4-(trifluoromethyl)benzamide], the IC50 worked out at 11.5 nM. As for `CCc1cc(F)ccc1Oc1cc(C(F)(F)F)c(Cl)cc1C(=O)Nc1cn[nH]c(=O)c1` [Example 36, 5-Chloro-2-(2-ethyl-4-fluorophenoxy)-N-(6-oxo-1,6-dihydropyridazin-4-yl)-4-(trifluoromethyl)benzamide], the IC50 came to 1.54 nM. Regarding `O=C(Nc1cn[nH]c(=O)c1)c1cc(Cl)c(C(F)(F)F)cc1Oc1ccc(F)cc1OC(F)F` [Example 37, 5-Chloro-2-(2-(difluoromethoxy)-4-fluorophenoxy)-N-(6-oxo-1,6-dihydropyridazin-4-yl)-4-(trifluoromethyl)benzamide], the IC50 is 2.38 nM. On to `O=C(Nc1cn[nH]c(=O)c1)c1cc(Cl)c(C(F)(F)F)cc1Oc1ccc(F)c2c1CCC2` [Example 39, 5-Chloro-2-((7-fluoro-2,3-dihydro-1H-inden-4-yl)oxy)-N-(6-oxo-1,6-dihydropyridazin-4-yl)-4-(trifluoromethyl)benzamide], for which the IC50 amounted to 0.24 nM.

For the molecule `O=C(Nc1cn[nH]c(=O)c1)c1cc(Cl)c(C(F)(F)F)cc1Oc1ccc(F)cc1OC1CCCC1` [Example 40, 5-Chloro-2-(2-(cyclopentyloxy)-4-fluorophenoxy)-N-(6-oxo-1,6-dihydropyridazin-4-yl)-4-(trifluoromethyl)benzamide], the IC50 came out at 0.32 nM. Consider `O=C(Nc1cn[nH]c(=O)c1)c1cc(Cl)c(C(F)(F)F)cc1Oc1ccc(F)cc1OC1CCC1` [Example 41, 5-Chloro-2-(2-cyclobutoxy-4-fluorophenoxy)-N-(6-oxo-1,6-dihydropyridazin-4-yl)-4-(trifluoromethyl)benzamide], for which the IC50 came out at 1.86 nM.

One may read the IC50 as the point on the concentration scale where inhibition reaches its midpoint.
